Measurements: patent US8669256B2, “Substituted thieno[2,3-b]pyrazine compounds as modulators of B-Raf kinase activity” (Merck Sharp & Dohme B.V., priority 2010, dated 2014)
Where two headings read alike, the source gives them in different places.

How the values were obtained:
[1] = system: phosphorylation of ERK1/2 in A375 cells containing mutant B-Raf (V600E); test: Phospho-ERK FACE assay in A375 (B-Raf mutated) melanoma cell line; assay type: cell-based; conditions: Homo sapiens, A-375, A375 cells, 2 hours incubation, read-out: IC50, A375 melanoma phospho-ERK assay
Method: The B-Raf activity can also be determined in a B-Raf mutated melanoma cell line, such as the A375 cell line. Inhibition of phosphorylation of ERK1/2 can be measured using a Fast Activated Cell-based ELISA (FACE) from Active Motif (Carlsbad, U.S.A., CA). E.g. A375 cells, which are cells containing a mutant form of B-Raf (V600E) and thus contain high levels of phosphorylated ERK, can be incubated with Raf inhibitors. Then cells can be incubated with anti-phospho-ERK antibody and subsequently with horse radish peroxidase (HRP)-labeled secondary antibody. Finally, chemiluminescence reagents can be added, which react with HRP, to give a luminescence signal.
Determination of B-Raf Activity Using a A375 (B-Raf mutated) Melanoma Cell Line (Phospho-ERK FACE Assay)
Inhibition of phosphorylation of ERK1/2 was measured using a Fast Activated Cell-based ELISA (FACE) from Active Motif (Carlsbad, U.S.A., CA). Briefly, A375 cells, which are cells containing a mutant form of B-Raf (V600E) and thus contain high levels of phosphorylated ERK, were incubated for 2 hours with Raf inhibitors. Then, cells were fixed with paraformaldehyde, washed and following quenching and blocking, incubated with anti-phospho-ERK antibody, and as a control, on a separate plate, with ERK antibody. After washing and removal of the primary antibodies, the fixed cells were incubated with horse radish peroxidase (HRP)-labeled secondary antibody. Finally, chemiluminescence reagents were added, which react with HRP, to give a luminescence signal.
Detailed protocol: A375 cells were cultured in DMEM/F12 (Dulbecco's Modified Eagle Medium Nutrient Mixture F-12) (Invitrogen), supplemented with 10% fetal bovine serum (FBS) (Biowhittaker), 100 U/ml penicillin G and 100 μg/ml streptomycin (Gibco). For the phospho ERK assay, cells were seeded at a density of 15,000 cells/well in 100 μl culture medium in 96-well plates and incubated in a humidified atmosphere at 5% CO2 and 37° C. After 24 hours, cells were washed with DMEM/F12 supplemented with 0.1% FBS (assay medium 120 μl of assay medium was added and the plates were incubated overnight in a humidified atmosphere at 5% CO2 and 37° C. The next day, the assay medium was removed and compounds diluted in assay medium were added to the cells. Final DMSO concentration in the assay was 1%. After 2 hours incubation, cells were fixed by replacing the assay medium with 100 μl of 4% formaldehyde (Bio-Connect, Huissen, The Netherlands) in PBS. After 20 minutes of incubation at room temperature, cells were washed three times with 200 μl wash buffer (0.1% (vol/vol) Triton X-100 in PBS from the FACE kit) followed by an incubation of 20 minutes with 100 μl quenching buffer, containing 1% (vol/vol) hydrogen peroxide (Thermo Fisher Scientific) and 0.1% (vol/vol) sodium azide (Sigma-Aldrich) in phosphate-buffered saline. Cells were washed two times with wash buffer, incubated for 1 hour with 100 μl antibody blocking buffer from the kit and washed two times again. 40 μl of diluted antibody against phosphorylated ERK1/2 (1:500 from the FACE kit) was added and incubated overnight at 4° C. The phospho-ERK antibody has been raised against a synthetic phospho-peptide corresponding to residues Thr202 and Tyr204 of human ERK1 and Thr185 and Tyr187 of human ERK2. For the detection of total ERK, antibody against ERK1 and ERK2 (1:500 from the FACE kit) was added. The excessive primary antibody was washed out, and 100 μl diluted HRP-conjugated anti-rabbit IgG (1:2000 from the FACE kit) was added and incubated for 1 hour at room temperature. Secondary antibody was removed and cells were washed 3 times with wash buffer and twice with PBS. 50 μl per well of FACE chemiluminescent working solution was added. Chemiluminescence was measured on an Envision Multilabel reader.

[2] = target: T1, GST-tagged human recombinant active B-Raf (Δ1-415) (Homo sapiens, UniProt P15056); test: B-Raf kinase activity, IMAP coupled assay (B-Raf/MEK1/ERK2, fluorescence polarization); assay type: biochemical; conditions: bounds also given as pIC50 (>6, >7, >8); 60 min pre-incubation with compound, ATP 50 μM; read-out: IC50, B-Raf IMAP assay
T1 construct: GST; purchased Upstate/Millipore
Excerpt: (§1) In another assay the B-Raf kinase activity can be determined by using an IMAP assay (Immobilized Metal Assay for Phosphochemicals-based coupled assay). IMAP is a homogeneous fluorescence polarization (FP) assay based on affinity capture of phosphorylated peptide substrates. IMAP uses fluorescein-labeled peptide substrates that, upon phosphorylation by a protein kinase, bind to so called IMAP nanoparticles, which are derivatized with trivalent metal complexes. Such binding causes a change in the rate of the molecular motion of the peptide, and results in an increase in the FP value observed for the fluorescein label attached to the substrate peptide. In such an assay, B-Raf phosphorylates unactive MEK1. The phosphorylated MEK1 is capable of phosphorylating ERK2, which subsequently phosphorylates the fluorescein-labeled peptide substrate.
Determination of B-Raf Kinase Activity using an IMAP Assay
as §1, with “Inhibition of” for “In another assay the”, “was measured” for “can be determined by”, “Immobilized” for “IMAP assay (Immobilized”, “assay (IMAP).” for “assay).”, “this” for “such an”
Enzymes, substrate and ATP were diluted at all steps in Kinase Reaction buffer (10 mM Tris-HCl, 10 mM MgCl2, 0.01% Tween-20, 0.05% NaN3 pH 7.2, 1 mM DTT). The final volume at the kinase reaction step of the assay in the 384-well plate was 20 μl. The concentrations within brackets are final concentrations in the assay. B-Raf (GST-tagged human recombinant active B-Raf (Δ1-415), Upstate/Millipore; 0.2 U/ml) was pre-incubated with compounds or DMSO (1% final concentration) for 60 minutes at room temperature in the dark. Thereafter, MEK 1 (GST-tagged human recombinant unactive MEK1 (full-length); 64 ng/ml), ERK2 (GST-tagged human recombinant unactive ERK2 (full-length); 600 ng/ml), peptide substrate (Erktide, Molecular Devices; 50 nM) and ATP (50 μM) were added to the wells and the mix was incubated for another 60 minutes at 30° C. in the dark. Then, IMAP progressive binding buffer (75% 1× buffer A, 25% 1× buffer B, 1:900 Progressive Binding Reagent; Molecular Devices) was added followed by an incubation step of 60 minutes at room temperature in the dark. Finally, the FP signal was read on an Envision Multilabel reader (Perkin Elmer).

[3] = class given as below 100 nM (pIC50>7)
[4] = class between 10 μM and 1 μM (5<pIC50<6)
[5] = between 1 μM and 100 nM (6<pIC50<7)

T1 sequence (P15056 416-766, stated change not applied): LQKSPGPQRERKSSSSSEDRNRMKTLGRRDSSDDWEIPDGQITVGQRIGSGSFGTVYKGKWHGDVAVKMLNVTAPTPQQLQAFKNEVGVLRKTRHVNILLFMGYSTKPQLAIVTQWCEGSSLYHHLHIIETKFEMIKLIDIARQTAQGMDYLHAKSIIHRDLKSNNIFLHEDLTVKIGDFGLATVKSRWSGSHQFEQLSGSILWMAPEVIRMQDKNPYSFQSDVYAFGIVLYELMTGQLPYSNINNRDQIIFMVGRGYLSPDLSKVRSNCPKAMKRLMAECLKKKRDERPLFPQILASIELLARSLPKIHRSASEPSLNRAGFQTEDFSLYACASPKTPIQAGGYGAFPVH

Row | IC50 [1, 3] [nM] | IC50 [2] [nM] | IC50 [1, 4] [nM] | IC50 [1, 5] [nM] | Compound
1 | < 100 | < 100 | – | – | CCNc1cnc2sc(C(=O)Nc3cc(NC(=O)c4cccc(C(C)(C)C#N)c4)ccc3C)cc2n1 [Example 13, N-(5-(3-(2-cyanopropan-2-yl)benzamido)-2-methylphenyl)-2-(ethylamino)thieno[2,3-b]pyrazine-6-carboxamide]
2 | – | < 100 | 1000 to 10000 | – | Cc1ccc(NC(=O)c2cccc(C(C)(C)C#N)c2)cc1NC(=O)c1cc2nc(NCCN(C)C)cnc2s1 [Example 14, N-(5-(3-(2-cyanopropan-2-yl)benzamido)-2-methylphenyl)-2-(2-(dimethylamino)ethylamino)thieno[2,3-b]pyrazine-6-carboxamide]
3 | < 100 | < 10 | – | – | Cc1ccc(NC(=O)c2cccc(C(C)(C)C#N)c2)cc1NC(=O)c1cc2nc(N(C)C)cnc2s1 [Example 15, N-(5-(3-(2-cyanopropan-2-yl)benzamido)-2-methylphenyl)-2-(dimethylamino)thieno[2,3-b]pyrazine-6-carboxamide]
4 | < 100 | < 100 | – | – | Cc1ccc(NC(=O)c2cccc(C(C)(C)C#N)c2)cc1NC(=O)c1cc2nc(NC(C)C)cnc2s1 [Example 16, N-(5-(3-(2-cyanopropan-2-yl)benzamido)-2-methylphenyl)-2-(isopropylamino)thieno[2,3-b]pyrazine-6-carboxamide]
5 | – | < 100 | – | 100 to 1000 | CNc1cnc2sc(C(=O)Nc3cc(NC(=O)c4cccc(C(C)(C)C#N)c4)ccc3C)cc2n1 [Example 17, N-(5-(3-(2-cyanopropan-2-yl)benzamido)-2-methylphenyl)-2-(methylamino)thieno[2,3-b]pyrazine-6-carboxamide]
6 | – | < 10 | – | 100 to 1000 | Cc1ccc(NC(=O)c2cccc(C(C)(C)C#N)c2)cc1NC(=O)c1cc2nc(NCc3ccncc3)cnc2s1 [Example 18, N-(5-(3-(2-cyanopropan-2-yl)benzamido)-2-methylphenyl)-2-(pyridin-4-ylmethylamino)thieno[2,3-b]pyrazine-6-carboxamide]
7 | – | < 100 | 1000 to 10000 | – | CC(=O)c1cnc2sc(C(=O)Nc3cc(NC(=O)c4cccc(C(C)(C)C#N)c4)ccc3C)cc2n1 [Example 19, 2-acetyl-N-(5-(3-(2-cyanopropan-2-yl)benzamido)-2-methylphenyl)thieno[2,3-b]pyrazine-6-carboxamide]
8 | < 100 | < 10 | – | – | Cc1ccc(NC(=O)c2cccc(C(C)(C)C#N)c2)cc1NC(=O)c1cc2nc(-c3cccnc3)cnc2s1 [Example 20, N-(5-(3-(2-cyanopropan-2-yl)benzamido)-2-methylphenyl)-2-(pyridin-3-yl)thieno[2,3-b]pyrazine-6-carboxamide]
9 | < 100 | < 100 | – | – | Cc1ccc(NC(=O)c2cccc(C(C)(C)C#N)c2)cc1NC(=O)c1cc2nc(-c3ccncc3)cnc2s1 [Example 21, N-(5-(3-(2-cyanopropan-2-yl)benzamido)-2-methylphenyl)-2-(pyridin-4-yl)thieno[2,3-b]pyrazine-6-carboxamide]
10 | – | < 10 | – | 100 to 1000 | Cc1cnc2sc(C(=O)Nc3cc(NC(=O)c4cccc(C(C)(C)C#N)c4)ccc3C)cc2n1 [Example 24, N-(5-(3-(2-cyanopropan-2-yl)benzamido)-2-methylphenyl)-2-methylthieno[2,3-b]pyrazine-6-carboxamide]
11 | – | < 100 | 1000 to 10000 | – | Cc1ccc(NC(=O)c2ccnc(N3CCCC3)c2)cc1NC(=O)c1cc2nccnc2s1 [Example 26, N-(2-methyl-5-(2-(pyrrolidin-1-yl)isonicotinamido)phenyl)thieno[2,3-b]pyrazine-6-carboxamide]
12 | – | < 10 | – | 100 to 1000 | Cc1ccc(NC(=O)c2cccc(C(C)(C)C#N)c2)cc1NC(=O)c1cc2nccnc2s1 [Example 27, N-(5-(3-(2-cyanopropan-2-yl)benzamido)-2-methylphenyl)thieno[2,3-b]pyrazine-6-carboxamide]
13 | – | < 100 | – | 100 to 1000 | COc1ccc(C(=O)Nc2ccc(C)c(NC(=O)c3cc4nccnc4s3)c2)cc1C(F)(F)F [Example 28, N-(5-(4-methoxy-3-(trifluoromethyl)benzamido)-2-methylphenyl)thieno[2,3-b]pyrazine-6-carboxamide]
14 | – | < 10 | – | 100 to 1000 | Cc1ccc(NC(=O)c2cccc(C3(C#N)CC3)c2)cc1NC(=O)c1cc2nccnc2s1 [Example 29, N-(5-(3-(1-cyanocyclopropyl)benzamido)-2-methylphenyl)thieno[2,3-b]pyrazine-6-carboxamide]
15 | – | < 100 | – | 100 to 1000 | Cc1ccc(NC(=O)c2cc(C(C)(C)C)n[nH]2)cc1NC(=O)c1cc2nccnc2s1 [Example 30, N-(5-(3-tert-butyl-1H-pyrazole-5-carboxamido)-2-methylphenyl)thieno[2,3-b]pyrazine-6-carboxamide]
16 | – | < 100 | – | 100 to 1000 | Cc1ccc(NC(=O)c2ccc(C)c(C(F)(F)F)c2)cc1NC(=O)c1cc2nccnc2s1 [Example 31, N-(2-methyl-5-(4-methyl-3-(trifluoromethyl)benzamido)phenyl)thieno[2,3-b]pyrazine-6-carboxamide]
